The values that follow are results of earlier work, collected in patent publication US7160560B2, “Skin-care composition” (L'Oreal S.A., priority 2003, dated 2007).

For the molecule `CC1=N[C@H](C(=O)O)CCN1` [ectoin, (s)-1,4,5,6-tetrahydro-2-methyl-4-pyrimidinecarboxylic acid], the “UVA radiation-induced formation of mitochondrial DNA mutations” value in the data set with human dermal fibroblasts is “inhibits”. The “signaling cascade brought about by UVA-radiation” value with human keratinocytes is listed as “inhibits”.
